From PMC9234962, “Optimization of Peptide Linker-Based Fluorescent Ligands for the Histamine H1 Receptor” (Journal of Medicinal Chemistry, 2022)
Square brackets hold non-standard residues; d marks the D form. Peptide text beside a SMILES is read from it. * marks the point of attachment. Propanoyl(3-Pip(4-O-2-BnPh)) = O=C(CCN1CCC(Oc2ccccc2Cc2ccccc2)CC1)*

Biological target: Nluc-H1R (Homo sapiens, UniProt P35367)
Assay: NanoBRET competition binding assay (displacement of 1) on Nluc-H1R expressing HEK293T cells
Conditions: displacement of 1 (25 nM, KD = 8 nM), whole HEK293T cells, Cheng–Prusoff; for pKi: mean ± SEM, three experiments

Chain of Nluc-H1R (P35367 whole entry): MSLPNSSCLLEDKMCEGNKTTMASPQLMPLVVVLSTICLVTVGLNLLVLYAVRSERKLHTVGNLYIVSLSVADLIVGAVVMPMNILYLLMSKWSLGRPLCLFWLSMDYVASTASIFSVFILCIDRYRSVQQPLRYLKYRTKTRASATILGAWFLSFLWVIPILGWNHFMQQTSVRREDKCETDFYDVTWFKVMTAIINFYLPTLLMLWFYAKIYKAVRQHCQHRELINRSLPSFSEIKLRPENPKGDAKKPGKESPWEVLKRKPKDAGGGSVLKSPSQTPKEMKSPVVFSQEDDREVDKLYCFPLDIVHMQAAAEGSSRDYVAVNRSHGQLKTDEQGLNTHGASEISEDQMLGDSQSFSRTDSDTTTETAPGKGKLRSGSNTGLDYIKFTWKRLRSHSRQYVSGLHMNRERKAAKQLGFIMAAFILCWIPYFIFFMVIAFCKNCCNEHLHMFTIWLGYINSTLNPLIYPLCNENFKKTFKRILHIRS

SMILES	Ki	pKi
C[C@H](NC(=O)[C@H](C)NC(=O)[C@H](Cc1ccccc1)NC(=O)CCN1CCC(Oc2ccccc2Cc2ccccc2)CC1)C(=O)N[C@H](Cc1ccccc1)C(N)=O [Compound 8d, (S)-N-((S)-1-(((S)-1-(((R)-1-Amino-1-oxo-3-phenylpropan-2-yl)amino)-1-oxopropan-2-yl)amino)-1-oxopropan-2-yl)-2-(3-(4-(2-benzylphenoxy)piperidin-1-yl)propanamido)-3-phenylpropanamide] ({Propanoyl(3-Pip(4-O-2-BnPh))}-FAA[dF]-NH2)	1320 nM	5.88 ± 0.21
C[C@H](NC(=O)[C@H](C)NC(=O)[C@H](Cc1ccc(O)cc1)NC(=O)CCN1CCC(Oc2ccccc2Cc2ccccc2)CC1)C(=O)N[C@H](Cc1ccccc1)C(N)=O [Compound 8e, (S)-N-((S)-1-(((S)-1-(((R)-1-Amino-1-oxo-3-phenylpropan-2-yl)amino)-1-oxopropan-2-yl)amino)-1-oxopropan-2-yl)-2-(3-(4-(2-benzylphenoxy)piperidin-1-yl)propanamido)-3-(4-hydroxyphenyl)propanamide] ({Propanoyl(3-Pip(4-O-2-BnPh))}-YAA[dF]-NH2)	1180 nM	5.93 ± 0.17
C[C@H](NC(=O)[C@H](C)NC(=O)[C@H](CC(N)=O)NC(=O)CCN1CCC(Oc2ccccc2Cc2ccccc2)CC1)C(=O)N[C@H](Cc1ccccc1)C(N)=O [Compound 8g, (S)-N-((S)-1-(((S)-1-(((R)-1-Amino-1-oxo-3-phenylpropan-2-yl)amino)-1-oxopropan-2-yl)amino)-1-oxopropan-2-yl)-2-(3-(4-(2-benzylphenoxy)piperidin-1-yl)-propanamido)succinamide] ({Propanoyl(3-Pip(4-O-2-BnPh))}-NAA[dF]-NH2)	562 nM	6.25 ± 0.20
C[C@H](NC(=O)[C@H](C)NC(=O)[C@H](Cc1cnc[nH]1)NC(=O)CCN1CCC(Oc2ccccc2Cc2ccccc2)CC1)C(=O)N[C@H](Cc1ccccc1)C(N)=O [Compound 8h, (S)-N-((S)-1-(((S)-1-(((R)-1-Amino-1-oxo-3-phenylpropan-2-yl)amino)-1-oxopropan-2-yl)amino)-1-oxopropan-2-yl)-2-(3-(4-(2-benzylphenoxy)piperidin-1-yl)propanamido)-3-(1H-imidazol-5-yl)propanamide] ({Propanoyl(3-Pip(4-O-2-BnPh))}-HAA[dF]-NH2)	933 nM	6.03 ± 0.13
C[C@H](NC(=O)[C@H](C)NC(=O)[C@H](CCCCN)NC(=O)CCN1CCC(Oc2ccccc2Cc2ccccc2)CC1)C(=O)N[C@H](Cc1ccccc1)C(N)=O [Compound 8i, (S)-6-Amino-N-((S)-1-(((S)-1-(((R)-1-amino-1-oxo-3-phenylpropan-2-yl)amino)-1-oxopropan-2-yl)-amino)-1-oxopropan-2-yl)-2-(3-(4-(2-benzylphenoxy)piperidin-1-yl)-propanamido)hexanamide] ({Propanoyl(3-Pip(4-O-2-BnPh))}-KAA[dF]-NH2)	1620 nM	5.79 ± 0.18

Second part, the compound after the results:

Ki	pKi	SMILES
912 nM	6.04 ± 0.16	C[C@H](NC(=O)CCN1CCC(Oc2ccccc2Cc2ccccc2)CC1)C(=O)N[C@@H](C)C(=O)N[C@@H](C)C(=O)N[C@H](Cc1ccccc1)C(N)=O [Compound 8a, (S)-N-((R)-1-Amino-1-oxo-3-phenylpropan-2-yl)-2-((S)-2-((S)-2-(3-(4-(2-benzylphenoxy)piperidin-1-yl)-propana-mido)propanamido)propanamido)propanamide] ({Propanoyl(3-Pip(4-O-2-BnPh))}-AAA[dF]-NH2)
513 nM	6.29 ± 0.21	C[C@H](NC(=O)CNC(=O)CCN1CCC(Oc2ccccc2Cc2ccccc2)CC1)C(=O)N[C@@H](C)C(=O)N[C@H](Cc1ccccc1)C(N)=O [Compound 8b, (S)-N-((R)-1-Amino-1-oxo-3-phenylpropan-2-yl)-2-((S)-2-(2-(3-(4-(2-benzylphenoxy)piperidin-1-yl)propanamido)acetamido)propanamido)propanamide] ({Propanoyl(3-Pip(4-O-2-BnPh))}-GAA[dF]-NH2)
158 nM	6.80 ± 0.12	CC(C)[C@H](NC(=O)CCN1CCC(Oc2ccccc2Cc2ccccc2)CC1)C(=O)N[C@@H](C)C(=O)N[C@@H](C)C(=O)N[C@H](Cc1ccccc1)C(N)=O [Compound 8c, (S)-N-((S)-1-(((S)-1-(((R)-1-Amino-1-oxo-3-phenylpropan-2-yl)amino)-1-oxopropan-2-yl)amino)-1-oxopropan-2-yl)-2-(3-(4-(2-benzylphenoxy)piperidin-1-yl)propanamido)-3-methylbutanamide] ({Propanoyl(3-Pip(4-O-2-BnPh))}-VAA[dF]-NH2)
407 nM	6.39 ± 0.15	C[C@H](NC(=O)[C@H](C)NC(=O)[C@H](CO)NC(=O)CCN1CCC(Oc2ccccc2Cc2ccccc2)CC1)C(=O)N[C@H](Cc1ccccc1)C(N)=O [Compound 8f, (S)-N-((S)-1-(((S)-1-(((R)-1-Amino-1-oxo-3-phenylpropan-2-yl)amino)-1-oxopropan-2-yl)amino)-1-oxopropan-2-yl)-2-(3-(4-(2-benzylphenoxy)piperidin-1-yl)propanamido)-3-hydroxypropanamide] ({Propanoyl(3-Pip(4-O-2-BnPh))}-SAA[dF]-NH2)
1020 nM	5.99 ± 0.24	C[C@H](NC(=O)[C@H](C)NC(=O)[C@H](CC(=O)O)NC(=O)CCN1CCC(Oc2ccccc2Cc2ccccc2)CC1)C(=O)N[C@H](Cc1ccccc1)C(N)=O [Compound 8j, (S)-4-(((S)-1-(((S)-1-(((R)-1-Amino-1-oxo-3-phenylpropan-2-yl)amino)-1-oxopropan-2-yl)amino)-1-oxopropan-2-yl)amino)-3-(3-(4-(2-benzylphenoxy)piperidin-1-yl)propanamido)-4-oxobutanoic Acid] ({Propanoyl(3-Pip(4-O-2-BnPh))}-DAA[dF]-NH2)
501 nM	6.30 ± 0.07	CC(C)[C@H](NC(=O)CCN1CCC(Oc2ccccc2Cc2ccccc2)CC1)C(=O)NCC(=O)N[C@@H](C)C(=O)N[C@H](Cc1ccccc1)C(N)=O [Compound 9a, (S)-N-(2-(((S)-1-(((R)-1-Amino-1-oxo-3-phenylpropan-2-yl)amino)-1-oxopropan-2-yl)amino)-2-oxoethyl)-2-(3-(4-(2-benzylphenoxy)piperidin-1-yl)propanamido)-3-methylbutanamide] ({Propanoyl(3-Pip(4-O-2-BnPh))}-VGA[dF]-NH2)
372 nM	6.43 ± 0.06	CC(C)[C@H](NC(=O)CCN1CCC(Oc2ccccc2Cc2ccccc2)CC1)C(=O)N[C@H](C(=O)N[C@@H](C)C(=O)N[C@H](Cc1ccccc1)C(N)=O)C(C)C [Compound 9b, (S)-N-((S)-1-(((R)-1-Amino-1-oxo-3-phenylpropan-2-yl)amino)-1-oxopropan-2-yl)-2-((S)-2-(3-(4-(2-benzylphenoxy)piperidin-1-yl)propanamido)-3-methylbutanamido)-3-methylbutanamide] ({Propanoyl(3-Pip(4-O-2-BnPh))}-VVA[dF]-NH2)
